Measurements: patent US11912677B1, “1,3-benzothiazol-2-yl-N'-[(3-phenylprop-2-enoyl)oxy]ethanimidamide as an anticancer and antimicrobial compound” (KING FAISAL UNIVERSITY, priority 2023, dated 2024)

What was measured:
[1] = system: human prostate cancer cells (PC3); assay: Assessment of cytotoxicity by SRB assay, PC3 cells; format: cell-based; conditions: 0.01 μM to 100 μM, 72 h
Method: (§1) The human prostate cancer cells (PC3) and human osteosarcoma cells (MG-63) were obtained from Nawah Scientific Inc. (Mokatam, Cairo, Egypt) and cultured in DMEM (Dulbecco's modified eagle's medium), Gibco, USA, supplemented with fetal bovine serum […] at a concentration of 10% and 100 U/mL of penicillin and streptomycin (PS). The Cells were incubated at 37° C. in a humidified environment that contained 5% CO2.
(§2) Cells were seeded in 96-well plates as aliquots of 100 μL cell suspension and incubated in a complete media for 24 h. Afterward, cells were treated with 1,3-benzothiazol-2-yl-N′-[(3-phenylprop-2-enoyl)oxy]ethanimidamide at diverse concentrations ranging from 0.01 μM to 100 μM for 72 h. Then, cells were fixed at 4° C. for one hour with 150 μL of 10% trichloroacetic acid (TCA). […] Then, 150 μL of Tris pH 10.5 (10 mM) was added, and the absorbance was measured at 540 nm using a BMG LABTECH®—FLUOstar Omega microplate reader (Ortenberg, Germany). Half maximal inhibitory concentrations (IC50) values were calculated for each experiment using GraphPad Prism 6 software. […] The inhibition was calculated using the following equation: Inhibition %=100−Average Viability
(§3) The anticancer activity of 1,3-benzothiazol-2-yl-N′-[(3-phenylprop-2-enoyl)oxy]ethanimidamide was assessed against highly aggressive androgen-independent metastatic human prostate cancer cells (PC3) and osteosarcoma (MG-63) cells.

[2] = system: human osteosarcoma cells (MG-63); assay: Assessment of cytotoxicity by SRB assay, MG-63 cells; format: cell-based; conditions: 0.01 μM to 100 μM, 72 h
Method: as §1, §2, §3

N/C(Cc1nc2ccccc2s1)=N\OC(=O)/C=C/c1ccccc1 [1,3-benzothiazol-2-yl-N′-[(3-phenylprop-2-enoyl)oxy]ethanimidamide]
antiproliferative activity against prostate cancer cells (PC3) [1]: excellent antiproliferative activities
antiproliferative activity against osteosarcoma (MG-63) cells [2]: excellent antiproliferative activities
melting point: 157 to 159 °C
